From article PMC4441267 come the findings set out here.

A short description of the data set: RuAAC macrocyclisation of azide/terminal alkyne linear peptidomimetics to 1,5-triazole ([Cp*RuCl]4 0.1 eq, Ar-degassed), then Boc removal (TMSCl/MeOH GP4 or HCl/dioxane GP5). Particulars: toluene (reflux), 1.25 mM, 111.0 °C, 18.0 h, 2 steps.

Take `COC(=O)[C@@H]1CCCCNC(=O)[C@H](Cc2ccccc2)n2nncc2CCC(=O)NCC[C@H](N)C(=O)N1` [Boc-Dab(4-pentynoyl)-Lys(N3-Phe)-OMe]: the ring closure, yield over several steps (from C#CCCC(=O)NCC[C@H](NC(=O)OC(C)(C)C)C(=O)N[C@@H](CCCCNC(=O)[C@H](Cc1ccccc1)N=[N+]=[N-])C(=O)OC, 19-membered ring) amounted to 90%. For `COC(=O)[C@@H]1CCCn2nncc2CCC(=O)NC[C@H](N)C(=O)N1` [Boc-Dap(4-pentynoyl)-Orn(N3)-OMe], for the setting “from C#CCCC(=O)NC[C@H](NC(=O)OC(C)(C)C)C(=O)N[C@@H](CCCN=[N+]=[N-])C(=O)OC, 14-membered ring”, the ring closure, yield over several steps is 99%. Where the note is “from C#CCCC(=O)NCCCC[C@H](NC(=O)OC(C)(C)C)C(=O)N[C@@H](Cc1ccc(N=[N+]=[N-])cc1)C(=O)OC, 19-membered ring”, `COC(=O)[C@@H]1Cc2ccc(cc2)-n2nncc2CCC(=O)NCCCC[C@H](N)C(=O)N1` [Boc-Lys(4-pentynoyl)-Phe(4-N3)-OMe] came in with a ring closure, yield over several steps of 68%. Where the note is “from C#CCCCC(=O)NC[C@H](NC(=O)OC(C)(C)C)C(=O)N[C@@H](CNC(=O)[C@H](Cc1ccccc1)N=[N+]=[N-])C(=O)OC, 16-membered ring”, `COC(=O)[C@@H]1CNC(=O)[C@H](Cc2ccccc2)n2nncc2CCCC(=O)NC[C@H](N)C(=O)N1` [Boc-Dap(5-hexynoyl)-Dap(N3-Phe)-OMe] yielded a ring closure, yield over several steps of 99%. As for `COC(=O)[C@@H]1CCCn2nncc2CNC(=O)NC[C@H](N)C(=O)N1` [Boc-Dap(CONH-propargyl)-Orn(N3)-OMe], the ring closure, yield over several steps (from C#CCNC(=O)NC[C@H](NC(=O)OC(C)(C)C)C(=O)N[C@@H](CCCN=[N+]=[N-])C(=O)OC, 14-membered ring) turned out to be 80%. On to `COC(=O)[C@@H]1CCCCNC(=O)[C@H](Cc2ccccc2)n2nncc2CCC(=O)NC[C@H](N)C(=O)N1` [Boc-Dap(4-pentynoyl)-Lys(N3-Phe)-OMe], for which the ring closure, yield over several steps (from C#CCCC(=O)NC[C@H](NC(=O)OC(C)(C)C)C(=O)N[C@@H](CCCCNC(=O)[C@H](Cc1ccccc1)N=[N+]=[N-])C(=O)OC, 18-membered ring) is 99%.

On to `COC(=O)[C@@H]1CNC(=O)[C@H](Cc2ccccc2)n2nncc2CCC(=O)NCCC[C@H](N)C(=O)N1` [Boc-Orn(4-pentynoyl)-Dap(N3-Phe)-OMe], for which the ring closure, yield over several steps (from C#CCCC(=O)NCCC[C@H](NC(=O)OC(C)(C)C)C(=O)N[C@@H](CNC(=O)[C@H](Cc1ccccc1)N=[N+]=[N-])C(=O)OC, 17-membered ring) worked out at 93%. `COC(=O)[C@@H]1CCCn2nncc2CNC(=O)NCCC[C@H](N)C(=O)N1` [Boc-Orn(CONH-propargyl)-Orn(N3)-OMe] yielded a ring closure, yield over several steps (from C#CCNC(=O)NCCC[C@H](NC(=O)OC(C)(C)C)C(=O)N[C@@H](CCCN=[N+]=[N-])C(=O)OC, 16-membered ring) of 99%. On to `COC(=O)[C@@H]1CCCn2nncc2CCCC(=O)NCCC[C@H](N)C(=O)N1` [Boc-Orn(5-hexynoyl)-Orn(N3)-OMe], for which, where the note is “from C#CCCCC(=O)NCCC[C@H](NC(=O)OC(C)(C)C)C(=O)N[C@@H](CCCN=[N+]=[N-])C(=O)OC, 17-membered ring”, the ring closure, yield over several steps was determined as 99%.

The molecule `COC(=O)[C@@H]1Cc2ccc(cc2)-n2nncc2CCC(=O)NC[C@H](N)C(=O)N1` [Boc-Dap(4-pentynoyl)-Phe(4-N3)-OMe] yielded a ring closure, yield over several steps (from C#CCCC(=O)NC[C@H](NC(=O)OC(C)(C)C)C(=O)N[C@@H](Cc1ccc(N=[N+]=[N-])cc1)C(=O)OC, 16-membered ring) of 33%. For the molecule `COC(=O)[C@@H]1CNC(=O)[C@H](Cc2ccccc2)n2nncc2CNC(=O)NCCCC[C@H](N)C(=O)N1` [Boc-Lys(CONH-propargyl)-Dap(N3-Phe)-OMe], for the setting “from C#CCNC(=O)NCCCC[C@H](NC(=O)OC(C)(C)C)C(=O)N[C@@H](CNC(=O)[C@H](Cc1ccccc1)N=[N+]=[N-])C(=O)OC, 18-membered ring”, the ring closure, yield over several steps was 96%. Regarding `COC(=O)[C@@H]1CCCCn2nncc2CCC(=O)NCCC[C@H](N)C(=O)N1` [Boc-Orn(4-pentynoyl)-Lys(N3)-OMe], the ring closure, yield over several steps (from C#CCCC(=O)NCCC[C@H](NC(=O)OC(C)(C)C)C(=O)N[C@@H](CCCCN=[N+]=[N-])C(=O)OC, 17-membered ring) was found to be 82%. For the molecule `COC(=O)[C@@H]1CCCCNC(=O)[C@H](Cc2ccccc2)n2nncc2CNC(=O)NCC[C@H](N)C(=O)N1` [Boc-Dab(CONH-propargyl)-Lys(N3-Phe)-OMe], the ring closure, yield over several steps (from C#CCNC(=O)NCC[C@H](NC(=O)OC(C)(C)C)C(=O)N[C@@H](CCCCNC(=O)[C@H](Cc1ccccc1)N=[N+]=[N-])C(=O)OC, 19-membered ring) came out at 78%. Molecule `COC(=O)[C@@H]1CNC(=O)[C@H](Cc2ccccc2)n2nncc2CCCC(=O)Nc2ccc(cc2)C[C@H](N)C(=O)N1` [Boc-Phe(4-NH-5-hexynoyl)-Dap(N3-Phe)-OMe] had a ring closure, yield over several steps (from C#CCCCC(=O)Nc1ccc(C[C@H](NC(=O)OC(C)(C)C)C(=O)N[C@@H](CNC(=O)[C@H](Cc2ccccc2)N=[N+]=[N-])C(=O)OC)cc1, 20-membered ring) of 15%. In turn, `COC(=O)[C@@H]1CNC(=O)[C@H](Cc2ccccc2)n2nncc2CCCC(=O)NCCC[C@H](N)C(=O)N1` [Boc-Orn(5-hexynoyl)-Dap(N3-Phe)-OMe] displayed a ring closure, yield over several steps (from C#CCCCC(=O)NCCC[C@H](NC(=O)OC(C)(C)C)C(=O)N[C@@H](CNC(=O)[C@H](Cc1ccccc1)N=[N+]=[N-])C(=O)OC, 18-membered ring) of 46%.

As to `COC(=O)[C@@H]1CCCn2nncc2CCCC(=O)NCCCC[C@H](N)C(=O)N1` [Boc-Lys(5-hexynoyl)-Orn(N3)-OMe], under “from C#CCCCC(=O)NCCCC[C@H](NC(=O)OC(C)(C)C)C(=O)N[C@@H](CCCN=[N+]=[N-])C(=O)OC, 18-membered ring”, the ring closure, yield over several steps came out at 99%. In turn, `COC(=O)[C@@H]1CCCn2nncc2CCC(=O)Nc2ccc(cc2)C[C@H](N)C(=O)N1` [Boc-Phe(4-NH-4-pentynoyl)-Orn(N3)-OMe] came in with a ring closure, yield over several steps (from C#CCCC(=O)Nc1ccc(C[C@H](NC(=O)OC(C)(C)C)C(=O)N[C@@H](CCCN=[N+]=[N-])C(=O)OC)cc1, 18-membered ring) of 44%. Molecule `COC(=O)[C@@H]1CCCCNC(=O)[C@H](Cc2ccccc2)n2nncc2CNC(=O)NCCCC[C@H](N)C(=O)N1` [Boc-Lys(CONH-propargyl)-Lys(N3-Phe)-OMe] had a ring closure, yield over several steps (from C#CCNC(=O)NCCCC[C@H](NC(=O)OC(C)(C)C)C(=O)N[C@@H](CCCCNC(=O)[C@H](Cc1ccccc1)N=[N+]=[N-])C(=O)OC, 21-membered ring) of 81%.

`COC(=O)[C@@H]1CCCCNC(=O)[C@H](Cc2ccccc2)n2nncc2CCCC(=O)Nc2ccc(cc2)C[C@H](N)C(=O)N1` [Boc-Phe(4-NH-5-hexynoyl)-Lys(N3-Phe)-OMe]: the ring closure, yield over several steps (from C#CCCCC(=O)Nc1ccc(C[C@H](NC(=O)OC(C)(C)C)C(=O)N[C@@H](CCCCNC(=O)[C@H](Cc2ccccc2)N=[N+]=[N-])C(=O)OC)cc1, 23-membered ring) worked out at 50%. Consider `COC(=O)[C@@H]1CNC(=O)[C@H](Cc2ccccc2)n2nncc2CCC(=O)NC[C@H](N)C(=O)N1` [Boc-Dap(4-pentynoyl)-Dap(N3-Phe)-OMe], for which, for the setting “from C#CCCC(=O)NC[C@H](NC(=O)OC(C)(C)C)C(=O)N[C@@H](CNC(=O)[C@H](Cc1ccccc1)N=[N+]=[N-])C(=O)OC, 15-membered ring”, the ring closure, yield over several steps is 89%. In turn, `COC(=O)[C@@H]1CNC(=O)[C@H](Cc2ccccc2)n2nncc2CNC(=O)NCC[C@H](N)C(=O)N1` [Boc-Dab(CONH-propargyl)-Dap(N3-Phe)-OMe] showed a ring closure, yield over several steps (from C#CCNC(=O)NCC[C@H](NC(=O)OC(C)(C)C)C(=O)N[C@@H](CNC(=O)[C@H](Cc1ccccc1)N=[N+]=[N-])C(=O)OC, 16-membered ring) of 52%. For the molecule `COC(=O)[C@@H]1Cc2ccc(cc2)-n2nncc2CCCC(=O)NCC[C@H](N)C(=O)N1` [Boc-Dab(5-hexynoyl)-Phe(4-N3)-OMe], the ring closure, yield over several steps (from C#CCCCC(=O)NCC[C@H](NC(=O)OC(C)(C)C)C(=O)N[C@@H](Cc1ccc(N=[N+]=[N-])cc1)C(=O)OC, 18-membered ring) was found to be 97%. `COC(=O)[C@@H]1Cc2ccc(cc2)-n2nncc2CNC(=O)NCCC[C@H](N)C(=O)N1` [Boc-Orn(CONH-propargyl)-Phe(4-N3)-OMe]: the ring closure, yield over several steps (from C#CCNC(=O)NCCC[C@H](NC(=O)OC(C)(C)C)C(=O)N[C@@H](Cc1ccc(N=[N+]=[N-])cc1)C(=O)OC, 18-membered ring) was found to be 46%. On to `COC(=O)[C@@H]1CCCCn2nncc2CCCC(=O)Nc2ccc(cc2)C[C@H](N)C(=O)N1` [Boc-Phe(4-NH-5-hexynoyl)-Lys(N3)-OMe], for which, for the setting “from C#CCCCC(=O)Nc1ccc(C[C@H](NC(=O)OC(C)(C)C)C(=O)N[C@@H](CCCCN=[N+]=[N-])C(=O)OC)cc1, 20-membered ring”, the ring closure, yield over several steps came out at 66%.

In the case of `COC(=O)[C@@H]1CCCCn2nncc2CCC(=O)Nc2ccc(cc2)C[C@H](N)C(=O)N1` [Boc-Phe(4-NH-4-pentynoyl)-Lys(N3)-OMe], where the note is “from C#CCCC(=O)Nc1ccc(C[C@H](NC(=O)OC(C)(C)C)C(=O)N[C@@H](CCCCN=[N+]=[N-])C(=O)OC)cc1, 19-membered ring”, the ring closure, yield over several steps stood at 71%.
